Laboratory results published in publication PMC12154458, “High-Throughput Screens of Repurposing Hub and DOS Chemical Libraries Reveal Compounds with Novel and Potent Inhibitory Activity Against the Essential Non-Neuronal Acetylcholinesterase of Schistosoma mansoni (SmTAChE)” (International Journal of Molecular Sciences, 2025).
Read-outs that look alike come from different tables or passages of the source.

How the values were obtained:
rSmTAChE [1] = biological target: T1, rSmTAChE (Schistosoma mansoni, UniProt A0A3Q0KMM5); assay: biochemical; settings: for inhibition at 20 µM: read-out: rSmTAChE HTS Inhibition (Ave, %)
T1 sequence (A0A3Q0KMM5 27-661 limits assumed): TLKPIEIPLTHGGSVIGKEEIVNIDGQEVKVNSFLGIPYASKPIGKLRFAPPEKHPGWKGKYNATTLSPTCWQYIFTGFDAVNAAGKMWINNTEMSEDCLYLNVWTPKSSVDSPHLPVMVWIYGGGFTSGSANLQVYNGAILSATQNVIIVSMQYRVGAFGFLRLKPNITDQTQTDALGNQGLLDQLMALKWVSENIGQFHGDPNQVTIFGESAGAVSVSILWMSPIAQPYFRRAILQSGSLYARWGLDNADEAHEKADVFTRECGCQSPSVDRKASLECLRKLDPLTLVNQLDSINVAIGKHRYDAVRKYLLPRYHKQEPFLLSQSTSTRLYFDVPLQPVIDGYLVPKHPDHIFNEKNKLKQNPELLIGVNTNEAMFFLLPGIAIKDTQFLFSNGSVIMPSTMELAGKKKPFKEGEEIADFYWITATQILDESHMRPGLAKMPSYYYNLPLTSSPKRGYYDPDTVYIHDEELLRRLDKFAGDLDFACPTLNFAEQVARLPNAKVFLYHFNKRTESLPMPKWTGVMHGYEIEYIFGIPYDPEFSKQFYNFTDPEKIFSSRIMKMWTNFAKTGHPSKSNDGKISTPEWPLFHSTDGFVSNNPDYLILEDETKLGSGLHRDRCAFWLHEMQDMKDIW

[2] = biological target: recombinant human acetylcholinesterase, rHsAChE (Homo sapiens, UniProt P22303); assay: biochemical
Chain of recombinant human acetylcholinesterase, rHsAChE (P22303 32-614): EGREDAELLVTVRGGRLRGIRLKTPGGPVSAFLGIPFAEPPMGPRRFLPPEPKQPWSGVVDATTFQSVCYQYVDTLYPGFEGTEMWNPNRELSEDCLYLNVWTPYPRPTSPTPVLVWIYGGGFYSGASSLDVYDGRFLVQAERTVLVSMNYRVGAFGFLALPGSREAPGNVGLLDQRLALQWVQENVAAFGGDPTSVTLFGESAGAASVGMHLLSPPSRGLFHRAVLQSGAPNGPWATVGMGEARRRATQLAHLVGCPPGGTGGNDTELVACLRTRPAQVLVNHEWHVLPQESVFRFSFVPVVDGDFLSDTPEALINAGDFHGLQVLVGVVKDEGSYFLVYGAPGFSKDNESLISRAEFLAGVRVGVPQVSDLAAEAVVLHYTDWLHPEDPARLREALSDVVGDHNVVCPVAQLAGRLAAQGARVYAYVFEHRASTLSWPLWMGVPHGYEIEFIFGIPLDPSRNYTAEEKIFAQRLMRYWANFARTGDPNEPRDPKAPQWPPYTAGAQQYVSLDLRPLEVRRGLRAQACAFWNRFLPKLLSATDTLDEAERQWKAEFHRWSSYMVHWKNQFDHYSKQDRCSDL

rSmTAChE [3] = biological target: T1, rSmTAChE; assay type: biochemical
[4] = read-out: qAC50 (IC50), rSmTAChE
[5] = read-out: qAC50 (IC50), rHsAChE
[6] = dose response analysis of Drug Repurposing Hub hits against rHsAChE
[7] = Table 2, DOS-A library, Inactive = inactive at the maximum tested concentration (40 µM), read-out: IC50 (µM) rHsAChE
[8] = dose response curve classification, Table S4, DOS-A
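Wherever Inhibition (%) (Average) is given: mostly 20 µM final but a few compounds at 5 or 10 µM.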
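Wherever Inhibition (%) Replicate A is given: mostly 20 µM final but a few compounds at 5 or 10 µM.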
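Wherever Inhibition (%) Replicate B is given: mostly 20 µM final but a few compounds at 5 or 10 µM.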

Compound	Inhibition (%) (Average) (rSmTAChE [1])	Inhibition (%) Replicate A (rSmTAChE [1]) [%]	Inhibition (%) Replicate B (rSmTAChE [1]) [%]	Data Mode (curve class), rHsAChE [2]	Data Mode (curve class), rSmTAChE (rSmTAChE [3])	rHsAChE Data Mode [2]	rSmTAChE Data Mode (rSmTAChE [3])	other results
C[C@H]1[C@H](C)CC[C@]2(C(=O)O)CC[C@]3(C)C(=CC[C@@H]4[C@@]5(C)CC[C@H](O)C(C)(C)[C@@H]5CC[C@]43C)[C@H]12 [BRD-K68185022-001-14-8]	75.09	74.28	75.90	inactive	decreasing (weakly active)	–	–	IC50 (rSmTAChE [3]; [4]): > 38 µM
O=C(Nc1ccc(Cl)cc1)Nc1ccc(Cl)c(Cl)c1 [BRD-K25029121-001-05-8]	85.20	84.59	85.82	decreasing (weakly active)	inactive	–	–	IC50 [2, 5]: > 38 µM
CN(Cc1ccc(C(C)(C)C)cc1)Cc1cccc2ccccc12 [BRD-K90630139-003-05-9]	62.99	64.97	61.01	decreasing (weakly active)	inactive	–	–	IC50 [2, 5]: > 38 µM
C[C@]12CCC3c4ccc(OC(=O)c5ccccc5)cc4CCC3C1CC[C@@H]2O (stereo partly drawn) [BRD-A74765037-001-01-1]	66.55	67.53	65.56	inactive	inactive	–	–	–
O=C(Nc1cccc2c(=O)cc(-c3nnn[nH]3)oc12)c1ccc(OCCCCc2ccccc2)cc1 [Pranlukast, reference compound]	–	–	–	–	decreasing	–	–	inhibition at 20 µM (rSmTAChE [1]): 66.3%; SI (Sm/Hs) [2]: 2.18; IC50 ([2]; IC50 (µM) rHsAChE): 12.6 µM; Data Mode (curve class), rHsAChE [2, 6]: decreasing
CCC(CC)C(c1ccc(Nc2nc3ccccc3s2)cc1)n1cncn1 (stereo not drawn) [BRD-A95755460-001-01-3]	71.38	75.72	67.03	inactive	decreasing (weakly active)	–	–	IC50 (rSmTAChE [3]; [4]): > 38 µM
CCCC#Cc1ccc([C@H]2[C@@H](CO)N3C(=O)CN(S(=O)(=O)c4ccccc4C)C[C@@H]23)cc1 [BRD-K77990919-001-01-3]	79.61	76.02	83.20	–	–	inactive	inactive	–
COc1cccc(C#Cc2ccc([C@@H]3[C@@H](C#N)N(C(=O)c4ccccn4)[C@H]3CO)cc2)c1 [BRD-K32986110-001-01-2, (2S,3R,4R)-4-(hydroxymethyl)-3-[4-[2-(3-methoxyphenyl)ethynyl]phenyl]-1-[oxo(2-pyridinyl)methyl]-2-azetidinecarbonitrile]	–	–	–	–	–	–	decreasing	inhibition at 20 µM (rSmTAChE [1]): 71.4%; IC50 [2, 7]: 31.2 µM; IC50 ([2]; Table S4, DOS-A (IC50 values; qAC50), read-out: rHsAChE qAC50): 31.3 µM; rHsAChE Data Mode [2, 8]: decreasing; SI (Hs/Sm) (rSmTAChE [3]): 1.1
COc1ccc(C#Cc2ccc3c(c2)O[C@H](CN(C)S(=O)(=O)c2ccccc2F)[C@H](C)CN([C@H](C)CO)S3(=O)=O)cc1 [BRD-K13781734-001-02-4]	66.73	61.49	71.97	–	–	inactive	decreasing (weakly active)	–
CCc1nc(-c2cccc(C)c2)c(-c2ccnc(NC(=O)c3ccccc3)c2)s1 [BRD-K52751261-001-08-7]	70.66	75.76	65.56	decreasing (weakly active)	inactive	–	–	IC50 [2, 5]: > 6.8 µM
COc1ccc(NC(=O)Nc2ccc3c(c2)[C@@H]2C[C@H](CC(=O)NCc4ccc5c(c4)OCO5)O[C@@H](CO)[C@@H]2O3)cc1 [BRD-K27599706-001-01-0]	78.59	80.15	77.03	–	–	decreasing (weakly active)	decreasing (weakly active)	–
COc1cccc(C#Cc2ccc([C@H]3[C@@H](CO)N(C(=O)c4ccccn4)[C@H]3C#N)cc2)c1 [BRD-K64190282-004-01-8, (2R,3R,4S)-4-(hydroxymethyl)-3-[4-[2-(3-methoxyphenyl)ethynyl]phenyl]-1-[oxo(2-pyridinyl)methyl]-2-azetidinecarbonitrile]	–	–	–	–	–	–	decreasing	inhibition at 20 µM (rSmTAChE [1]): 92.2%; IC50 [2, 7]: 33.7 µM; rHsAChE Data Mode [2, 8]: decreasing; SI (Hs/Sm) (rSmTAChE [3]): 2.59
COc1ccc(NC(=O)Nc2ccc3c(c2)[C@H]2C[C@@H](CC(=O)NCc4ccccn4)O[C@H](CO)[C@H]2O3)cc1 [BRD-K96625719-001-01-4]	74.63	75.38	73.88	–	–	inactive	decreasing (weakly active)	–
O=C(O)CNC(=O)c1c(O)c2ccccc2n(Cc2ccccc2)c1=O [IOX2, reference compound]	–	61.67	70.82	decreasing	decreasing	–	–	rSmTAChE HTS Inhibition (Ave, %) (rSmTAChE [1]; 5 µM): 66.25%; SI (Sm/Hs) [2]: 2.16; IC50 ([2]; read-out: IC50 (µM) rHsAChE): 7.75 µM; IC50 (rSmTAChE [3]; read-out: IC50 (µM) rSmTAChE): 16.7 µM; IC50 (rSmTAChE [3]; [4]): 16.7 µM
CCCNC(=O)Nc1ccc(Oc2ncnc3cc(OC)c(OC)cc23)cc1Cl [BRD-K90993449-001-02-7]	77.29	77.00	77.59	inactive	decreasing (weakly active)	–	–	IC50 (rSmTAChE [3]; [4]): > 38 µM
CCCCC(CC)CCC(CC(C)C)OS(=O)(=O)O (stereo not drawn) [Sodium-tetradecyl-sulfate, reference compound]	–	–	–	–	decreasing	–	–	inhibition at 20 µM (rSmTAChE [1]): 74.7%; SI (Sm/Hs) [2]: 2.01; IC50 ([2]; Table 3, read-out: IC50 (µM) rHsAChE): 5.66 µM; Data Mode (curve class), rHsAChE [2, 6]: decreasing
COc1ccc(C#Cc2ccc3c(c2)O[C@H](CN(C)S(=O)(=O)c2ccccc2F)[C@@H](C)CN([C@@H](C)CO)S3(=O)=O)cc1 [BRD-K14241686-001-01-8]	69.92	70.53	69.31	–	–	inactive	decreasing (weakly active)	–
COc1ccc(NC(=O)Nc2ccc3c(c2)[C@@H]2C[C@H](CC(=O)NCc4ccccc4F)O[C@@H](CO)[C@@H]2O3)cc1 [BRD-K05329107-001-01-3]	62.78	63.88	61.69	–	–	decreasing (weakly active)	inactive	–
COC(=O)N[C@H](C(=O)N1CC2(CC2)C[C@H]1c1ncc(-c2ccc3c(c2)C(F)(F)c2cc(-c4ccc5nc([C@@H]6[C@H]7CC[C@H](C7)N6C(=O)[C@@H](NC(=O)OC)C(C)C)[nH]c5c4)ccc2-3)[nH]1)C(C)C [BRD-K05446112-001-01-8]	66.27	67.15	65.39	inactive	decreasing (weakly active)	–	–	IC50 (rSmTAChE [3]; [4]): > 38 µM
C[C@H](CO)N1C[C@H](C)[C@H](CN(C)S(=O)(=O)c2ccc(F)cc2)Oc2c(NC(=O)Nc3cccc4ccccc34)cccc2C1=O [BRD-K73245004-001-02-0]	68.21	69.56	66.86	–	–	inactive	decreasing (weakly active)	–
O=C(C[C@@H]1C[C@@H]2c3cc(NC(=O)NC4CCCC4)ccc3O[C@@H]2[C@H](CO)O1)NCc1ccc(Cl)cc1 [BRD-K38240817-001-01-4]	84.65	85.52	83.79	–	–	decreasing (weakly active)	decreasing (weakly active)	–
